Experimental data reported in the NIST ThermoML archive (doi:10.1021/je1004643).
± gives the expanded uncertainty stated by the source.

What was measured:
[1] = Liquid; for mass density: 298.15 K, 101.33 kPa; for Normal boiling temperature: Ebulliometric method (Recirculating still)
[2] = refractive index (Na D-line) (dimensionless); conditions: 298.15 K; 101.33 kPa; Liquid; Standard Abbe refractometry

| SMILES | mass density [1] | Normal boiling temperature [1] | refractive index [2] |
| --- | --- | --- | --- |
| CCC(C)O (stereo unspecified) [butan-2-ol] | 802.35 ± 0.79 kg/m3 | 99.41 ± 0.3 °C | 1.3951 ± 0.0005 |
| CCC(C)=O [butanone] | 799.62 ± 0.46 kg/m3 | 79.53 ± 0.3 °C | 1.3761 ± 0.0005 |
